Source: publication PMC11881559 (Antimicrobial Agents and Chemotherapy, 2025)

What was measured:
CYP3A = settings: in vitro CYP reaction phenotyping, preclinical; cited from earlier work
[1] = rats; preclinical animal studies; cited from earlier work
[2] = Tolerability and safety assessment (AEs/ADRs, CTCAE 5.0); format: in vivo, human
Protocol: Safety and tolerability assessments were conducted for all participants who received at least one dose of RAY1216, either alone or in combination with ritonavir, throughout the study. The safety of all participants was evaluated on the basis of clinical symptoms, vital signs, 12-lead ECG, laboratory tests, physical examinations, and the evaluation of adverse events (AEs). All AEs were documented and graded according to the Common Terminology Criteria for Adverse Events (CTCAE, ver. 5.0). The grading scale was as follows: grade 1 (mild), grade 2 (moderate), grade 3 (severe), grade 4 (life threatening), and grade 5 (death).

[3] = Food effect, 800 mg, Fast (N = 12)
[4] = Food effect, 800 mg, Fed (N = 12)

O=C(NC1CCCC1)C(=O)[C@H](C[C@@H]1CCNC1=O)NC(=O)[C@@H]1[C@H]2CCC[C@H]2CN1C(=O)[C@@H](NC(=O)C(F)(F)F)C1CCCCC1 [RAY1216, leritrelvir]
primary metabolizing enzyme (CYP3A): CYP3A is the primary metabolizing enzyme
no-observed-adverse-effect level (NOAEL) [1]: 900 mg/kg/day
participants who experienced at least one adverse event (AE) ([2]; 37 of all 88 participants (RAY1216 or placebo)): 42%
ADR, n (%) [2, 3]: 2 (16.7) n (%)
AE, n (%) [2, 3]: 3 (25.0) n (%)
ALT elevated (ADR) [2, 3]: 0 n (%)
AST elevated (ADR) [2, 3]: 0 n (%)
Anemia (ADR) [2, 3]: 0 n (%)
Bilirubin elevated (ADR) [2, 3]: 0 n (%)
Diarrhea (ADR) [2, 3]: 0 n (%)
Fatigue (ADR) [2, 3]: 0 n (%)
Grade 2 ADRs [2, 3]: 1 (8.3) n (%)
Grade ≥3 AEs [2, 3]: 0 n (%)
Hypertriglyceridemia (ADR) [2, 3]: 0 n (%)
Hyperuricemia (ADR) [2, 3]: 0 n (%)
Leukopenia (ADR) [2, 3]: 1 (8.3) n (%)
Nausea (ADR) [2, 3]: 0 n (%)
Neutrophil decreased (ADR) [2, 3]: 1 (8.3) n (%)
Palpitations (ADR) [2, 3]: 0 n (%)
Serum creatinine elevated (ADR) [2, 3]: 0 n (%)
ADR, n (%) [2, 4]: 4 (33.3) n (%)
AE, n (%) [2, 4]: 5 (41.7) n (%)
ALT elevated (ADR) [2, 4]: 0 n (%)
AST elevated (ADR) [2, 4]: 0 n (%)
Anemia (ADR) [2, 4]: 0 n (%)
Bilirubin elevated (ADR) [2, 4]: 0 n (%)
Diarrhea (ADR) [2, 4]: 0 n (%)
Fatigue (ADR) [2, 4]: 0 n (%)
Grade 2 ADRs [2, 4]: 1 (8.3) n (%)
Grade ≥3 AEs [2, 4]: 0 n (%)
Hypertriglyceridemia (ADR) [2, 4]: 1 (8.3) n (%)
Hyperuricemia (ADR) [2, 4]: 0 n (%)
Leukopenia (ADR) [2, 4]: 0 n (%)
Nausea (ADR) [2, 4]: 0 n (%)
Neutrophil decreased (ADR) [2, 4]: 0 n (%)
Palpitations (ADR) [2, 4]: 0 n (%)
Serum creatinine elevated (ADR) [2, 4]: 2 (16.7) n (%)
participants reporting at least one ADR ([2]; MAD study with or without ritonavir, 9 out of 32 participants): 28.1%
ADR, n (%) ([2]; MAD, 400 mg TID (N = 6)): 2 (33.3) n (%)
AE, n (%) ([2]; MAD, 400 mg TID (N = 6)): 2 (33.3) n (%)
ALT elevated (ADR) ([2]; MAD, 400 mg TID (N = 6)): 0 n (%)
AST elevated (ADR) ([2]; MAD, 400 mg TID (N = 6)): 0 n (%)
Anemia (ADR) ([2]; MAD, 400 mg TID (N = 6)): 0 n (%)
Bilirubin elevated (ADR) ([2]; MAD, 400 mg TID (N = 6)): 0 n (%)
Diarrhea (ADR) ([2]; MAD, 400 mg TID (N = 6)): 0 n (%)
Fatigue (ADR) ([2]; MAD, 400 mg TID (N = 6)): 0 n (%)
Grade 2 ADRs ([2]; MAD, 400 mg TID (N = 6)): 0 n (%)
Grade ≥3 AEs ([2]; MAD, 400 mg TID (N = 6)): 0 n (%)
Hypertriglyceridemia (ADR) ([2]; MAD, 400 mg TID (N = 6)): 1 (16.7) n (%)
Hyperuricemia (ADR) ([2]; MAD, 400 mg TID (N = 6)): 0 n (%)
Leukopenia (ADR) ([2]; MAD, 400 mg TID (N = 6)): 0 n (%)
Nausea (ADR) ([2]; MAD, 400 mg TID (N = 6)): 0 n (%)
Neutrophil decreased (ADR) ([2]; MAD, 400 mg TID (N = 6)): 0 n (%)
Palpitations (ADR) ([2]; MAD, 400 mg TID (N = 6)): 0 n (%)
Serum creatinine elevated (ADR) ([2]; MAD, 400 mg TID (N = 6)): 0 n (%)
participants reporting at least one ADR ([2]; MAD, 400 mg TID group, two participants): 33.3%
participants reporting at least one ADR ([2]; SAD, 200 mg cohort, two participants): 33.3%
ADR, n (%) ([2]; SAD, 400 mg (N = 6)): 2 (33.3) n (%)
AE, n (%) ([2]; SAD, 400 mg (N = 6)): 2 (33.3) n (%)
ALT elevated (ADR) ([2]; SAD, 400 mg (N = 6)): 0 n (%)
AST elevated (ADR) ([2]; SAD, 400 mg (N = 6)): 0 n (%)
Anemia (ADR) ([2]; SAD, 400 mg (N = 6)): 0 n (%)
Bilirubin elevated (ADR) ([2]; SAD, 400 mg (N = 6)): 1 (16.7) n (%)
Diarrhea (ADR) ([2]; SAD, 400 mg (N = 6)): 0 n (%)
Fatigue (ADR) ([2]; SAD, 400 mg (N = 6)): 0 n (%)
Grade 2 ADRs ([2]; SAD, 400 mg (N = 6)): 0 n (%)
Grade ≥3 AEs ([2]; SAD, 400 mg (N = 6)): 0 n (%)
Hypertriglyceridemia (ADR) ([2]; SAD, 400 mg (N = 6)): 0 n (%)
Hyperuricemia (ADR) ([2]; SAD, 400 mg (N = 6)): 0 n (%)
Leukopenia (ADR) ([2]; SAD, 400 mg (N = 6)): 0 n (%)
Nausea (ADR) ([2]; SAD, 400 mg (N = 6)): 0 n (%)
Neutrophil decreased (ADR) ([2]; SAD, 400 mg (N = 6)): 0 n (%)
Palpitations (ADR) ([2]; SAD, 400 mg (N = 6)): 0 n (%)
Serum creatinine elevated (ADR) ([2]; SAD, 400 mg (N = 6)): 1 (16.7) n (%)
participants reporting at least one ADR ([2]; SAD, 400 mg cohort, two participants): 33.3%
ADR, n (%) ([2]; SAD, 800 mg (N = 6)): 0 n (%)
AE, n (%) ([2]; SAD, 800 mg (N = 6)): 1 (16.7) n (%)
ALT elevated (ADR) ([2]; SAD, 800 mg (N = 6)): 0 n (%)
AST elevated (ADR) ([2]; SAD, 800 mg (N = 6)): 0 n (%)
Anemia (ADR) ([2]; SAD, 800 mg (N = 6)): 0 n (%)
Bilirubin elevated (ADR) ([2]; SAD, 800 mg (N = 6)): 0 n (%)
Diarrhea (ADR) ([2]; SAD, 800 mg (N = 6)): 0 n (%)
Fatigue (ADR) ([2]; SAD, 800 mg (N = 6)): 0 n (%)
Grade 2 ADRs ([2]; SAD, 800 mg (N = 6)): 0 n (%)
Grade ≥3 AEs ([2]; SAD, 800 mg (N = 6)): 0 n (%)
Hypertriglyceridemia (ADR) ([2]; SAD, 800 mg (N = 6)): 0 n (%)
Hyperuricemia (ADR) ([2]; SAD, 800 mg (N = 6)): 0 n (%)
Leukopenia (ADR) ([2]; SAD, 800 mg (N = 6)): 0 n (%)
Nausea (ADR) ([2]; SAD, 800 mg (N = 6)): 0 n (%)
Neutrophil decreased (ADR) ([2]; SAD, 800 mg (N = 6)): 0 n (%)
Palpitations (ADR) ([2]; SAD, 800 mg (N = 6)): 0 n (%)
Serum creatinine elevated (ADR) ([2]; SAD, 800 mg (N = 6)): 0 n (%)
ADR, n (%) ([2]; SAD, 1,600 mg (N = 6)): 2 (33.3) n (%)
AE, n (%) ([2]; SAD, 1,600 mg (N = 6)): 2 (33.3) n (%)
ALT elevated (ADR) ([2]; SAD, 1,600 mg (N = 6)): 0 n (%)
AST elevated (ADR) ([2]; SAD, 1,600 mg (N = 6)): 0 n (%)
Anemia (ADR) ([2]; SAD, 1,600 mg (N = 6)): 0 n (%)
Bilirubin elevated (ADR) ([2]; SAD, 1,600 mg (N = 6)): 1 (16.7) n (%)
Diarrhea (ADR) ([2]; SAD, 1,600 mg (N = 6)): 0 n (%)
Fatigue (ADR) ([2]; SAD, 1,600 mg (N = 6)): 0 n (%)
Grade 2 ADRs ([2]; SAD, 1,600 mg (N = 6)): 0 (0.0) n (%)
Grade ≥3 AEs ([2]; SAD, 1,600 mg (N = 6)): 0 n (%)
Hypertriglyceridemia (ADR) ([2]; SAD, 1,600 mg (N = 6)): 1 (16.7) n (%)
Hyperuricemia (ADR) ([2]; SAD, 1,600 mg (N = 6)): 1 (16.7) n (%)
Leukopenia (ADR) ([2]; SAD, 1,600 mg (N = 6)): 0 n (%)
Nausea (ADR) ([2]; SAD, 1,600 mg (N = 6)): 0 n (%)
Neutrophil decreased (ADR) ([2]; SAD, 1,600 mg (N = 6)): 0 n (%)
Palpitations (ADR) ([2]; SAD, 1,600 mg (N = 6)): 0 n (%)
Serum creatinine elevated (ADR) ([2]; SAD, 1,600 mg (N = 6)): 0 n (%)
participants reporting at least one ADR ([2]; SAD, 1,600 mg cohort, two participants): 33.3%
participants reporting at least one ADR ([2]; SAD, 6 out of 32 participants): 18.8%
ADR, n (%) ([2]; SAD/DDI, 200 mg (N = 6)): 2 (33.3) n (%)
AE, n (%) ([2]; SAD/DDI, 200 mg (N = 6)): 2 (33.3) n (%)
ALT elevated (ADR) ([2]; SAD/DDI, 200 mg (N = 6)): 0 n (%)
AST elevated (ADR) ([2]; SAD/DDI, 200 mg (N = 6)): 0 n (%)
Anemia (ADR) ([2]; SAD/DDI, 200 mg (N = 6)): 0 n (%)
Bilirubin elevated (ADR) ([2]; SAD/DDI, 200 mg (N = 6)): 0 n (%)
Diarrhea (ADR) ([2]; SAD/DDI, 200 mg (N = 6)): 0 n (%)
Fatigue (ADR) ([2]; SAD/DDI, 200 mg (N = 6)): 0 n (%)
Grade 2 ADRs ([2]; SAD/DDI, 200 mg (N = 6)): 1 (16.7) n (%)
Grade ≥3 AEs ([2]; SAD/DDI, 200 mg (N = 6)): 0 n (%)
Hypertriglyceridemia (ADR) ([2]; SAD/DDI, 200 mg (N = 6)): 2 (33.3) n (%)
Hyperuricemia (ADR) ([2]; SAD/DDI, 200 mg (N = 6)): 0 n (%)
Leukopenia (ADR) ([2]; SAD/DDI, 200 mg (N = 6)): 0 n (%)
Nausea (ADR) ([2]; SAD/DDI, 200 mg (N = 6)): 0 n (%)
Neutrophil decreased (ADR) ([2]; SAD/DDI, 200 mg (N = 6)): 0 n (%)
Palpitations (ADR) ([2]; SAD/DDI, 200 mg (N = 6)): 0 n (%)
Serum creatinine elevated (ADR) ([2]; SAD/DDI, 200 mg (N = 6)): 0 n (%)
grade 3 or above AEs, withdrawal due to AEs, SAEs ([2]; all cohorts): No grade 3 or above AEs, participant withdrawal due to AEs, or SAEs occurred
participants reporting at least one ADR ([2]; food-effect study, RAY1216 alone, 5 out of 12 participants): 41.7%
participants reporting at least one ADR ([2]; food-effect study, RAY1216 alone, after meals, 4 out of 12): 33.3%
participants reporting at least one ADR ([2]; food-effect study, RAY1216 alone, fasting, 2 out of 12): 16.7%
